Test systems include OVCAR-8 ovarian; COLO 205 colon; HCC-2998 colon; HT29 colon; SK-MEL-28 melanoma; HCT-116 colon.
Holding throughout (assay): DTP human tumour cell line panel, 48 h

The text below walks through data of PubChem BioAssay (NCI).

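Tested at 5 concentrations; 48 h exposure; 96-well plates; endpoints linearly interpolated, else capped at highest concentration. Here, GI50 denotes the concentration required for 50% inhibition of growth. The concentration for full growth arrest is given as TGI.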

With `Cc1nc2c(ccc3ncccc32)[nH]1`, the TGI in the experiment on OVCAR-8 ovarian, with COLO 205 colon, with HCC-2998 colon, in the experiment on HT29 colon and with SK-MEL-28 melanoma was greater than 100 µM throughout.

Turning to `Cc1c(C(=O)C/C(=N/NC(=O)c2ccccc2O)C(=O)Nc2ccccc2C(C)C)[n+](=O)c2ccccc2n1[O-]`, the TGI in the experiment with OVCAR-8 ovarian, in the experiment with HCT-116 colon, in the experiment on COLO 205 colon, in the experiment with HCC-2998 colon, in the experiment on HT29 colon and in the experiment on SK-MEL-28 melanoma was greater than 100 µM each time.

Turning to `O=C(CCc1nc(=S)[nH][nH]1)Nc1cc(Cl)c(Cl)cc1Cl`, the concentration for total growth inhibition (TGI) in the experiment on OVCAR-8 ovarian, in the experiment with HCT-116 colon, in the experiment on COLO 205 colon, in the experiment with HCC-2998 colon, in the experiment on HT29 colon and in the experiment on SK-MEL-28 melanoma was greater than 100 µM throughout.

With `O=C(O)CCNCCCNCCC(=O)O`, the TGI in the experiment on OVCAR-8 ovarian, in the experiment on HCT-116 colon, with COLO 205 colon, with HCC-2998 colon, in the experiment with HT29 colon and in the experiment on SK-MEL-28 melanoma was greater than 100 µM each time.

Regarding `CCC[CH2][Sn]([CH2]CCC)([S]c1cccc2cccnc12)[S]c1cccc2cccnc12`, the 50% growth inhibitory concentration (GI50) in the experiment with OVCAR-8 ovarian is 0.283 µM; in the experiment on HCT-116 colon, 0.155 µM; with COLO 205 colon, 0.0592 µM; with HCC-2998 colon it was 0.144 µM; with HT29 colon, 0.138 µM; in the experiment on SK-MEL-28 melanoma, 0.16 µM. The concentration for total growth inhibition (TGI) in the experiment with OVCAR-8 ovarian turned out to be 1.16 µM; with HCT-116 colon it was 0.303 µM; in the experiment with COLO 205 colon it was 0.224 µM; in the experiment with HCC-2998 colon, 0.3 µM; in the experiment on HT29 colon it was 0.335 µM; with SK-MEL-28 melanoma, 0.472 µM.

Take `CCOC(=O)CCC1(C(=O)OCC)CCCCC1=O` (stereo unspecified): the TGI in the experiment with OVCAR-8 ovarian, in the experiment on HCT-116 colon, in the experiment with COLO 205 colon, with HCC-2998 colon, in the experiment with HT29 colon and in the experiment with SK-MEL-28 melanoma was greater than 100 µM throughout.

Consider `CCCC1C(=O)CCc2c(OC)ccc(OC)c21` (stereo unspecified), for which the total growth inhibition concentration (TGI) in the experiment on OVCAR-8 ovarian, with HCT-116 colon, in the experiment on COLO 205 colon, with HCC-2998 colon and in the experiment on HT29 colon was greater than 100 µM each time.

As to `O=C(CC(=O)c1cccc2ccccc12)C(=O)Nc1ccc(Cl)cc1`, the TGI with OVCAR-8 ovarian, with HCT-116 colon, in the experiment on COLO 205 colon, in the experiment on HCC-2998 colon and with HT29 colon was greater than 100 µM in each case.

As for `COc1cc2ccnc([C@@H](OC(=O)c3ccccc3)c3ccc(OC)c(OC)c3OC)c2cc1OC`, the TGI in the experiment with OVCAR-8 ovarian, in the experiment on HCT-116 colon, in the experiment with COLO 205 colon, with HCC-2998 colon, in the experiment with HT29 colon and in the experiment with SK-MEL-28 melanoma was greater than 100 µM each time.

For the compound `CCn1c(C)nn2c(=O)c3ccccc3nc2c1=O`, the TGI in the experiment on OVCAR-8 ovarian, in the experiment on HCT-116 colon, in the experiment on COLO 205 colon, with HCC-2998 colon, in the experiment on HT29 colon and in the experiment on SK-MEL-28 melanoma was greater than 100 µM each time.

For `COC(=O)C1(C(C)C)CCc2c(OC)ccc(OC)c2C1=O` (stereo unspecified), the TGI in the experiment with OVCAR-8 ovarian, in the experiment on HCT-116 colon, in the experiment on COLO 205 colon, in the experiment with HCC-2998 colon, in the experiment with HT29 colon and in the experiment on SK-MEL-28 melanoma was greater than 100 µM throughout.

`COC(=O)c1ccccc1NC(=O)C(=O)Cc1nc2c3c(ccc2[nH]c1=O)C(=O)c1ccccc1C3=O`: the TGI in the experiment with OVCAR-8 ovarian is greater than 100 µM; with HCT-116 colon, 34.7 µM; with COLO 205 colon it was greater than 100 µM; in the experiment on HCC-2998 colon it was 43 µM; in the experiment on HT29 colon, greater than 100 µM; in the experiment with SK-MEL-28 melanoma it was greater than 100 µM.

Turning to `NC1=NCCC1(c1ccccc1)c1ccccn1` (stereo unspecified), the TGI in the experiment on OVCAR-8 ovarian, with HCT-116 colon, with COLO 205 colon, in the experiment on HCC-2998 colon, with HT29 colon and in the experiment with SK-MEL-28 melanoma was greater than 100 µM each time.

In the case of `Cc1cc(N(CCC#N)CCC#N)ccc1N=Nc1ccc(S(N)(=O)=O)cc1`, the TGI with OVCAR-8 ovarian, with COLO 205 colon, with HCC-2998 colon, in the experiment with HT29 colon and in the experiment with SK-MEL-28 melanoma was greater than 100 µM each time.

In the case of `OCC1=CC(NC2CC(CO)C(O)C(O)C2O)C(O)C(O)C1O` (stereo unspecified), the concentration for total growth inhibition (TGI) with OVCAR-8 ovarian, in the experiment with HCT-116 colon, with COLO 205 colon, in the experiment on HT29 colon and in the experiment with SK-MEL-28 melanoma was greater than 100 µM in each case.
